Assay results reported in paper PMC10441804, “Insect fungal pathogens secrete a cell wall-associated glucanase that acts to help avoid recognition by the host immune system” (PLOS Pathogens, 2023).

Target: T1, BbEng1 (Beauveria bassiana, UniProt J4W7P1)
T1 construct: gene BBA_04753; full precursor 588 aa, 21-residue signal peptide removed; GH16 domain 22-343; expressed in Pichia pastoris GS115 (pPIC9K), purified, detected by anti-His tag
Experiment: glucose release, glucose oxidase method
Assay type: biochemical
Details: pH 6.0 (50 mM sodium acetate buffer), 37 °C, 1 h

T1 sequence (J4W7P1 entry or part of it): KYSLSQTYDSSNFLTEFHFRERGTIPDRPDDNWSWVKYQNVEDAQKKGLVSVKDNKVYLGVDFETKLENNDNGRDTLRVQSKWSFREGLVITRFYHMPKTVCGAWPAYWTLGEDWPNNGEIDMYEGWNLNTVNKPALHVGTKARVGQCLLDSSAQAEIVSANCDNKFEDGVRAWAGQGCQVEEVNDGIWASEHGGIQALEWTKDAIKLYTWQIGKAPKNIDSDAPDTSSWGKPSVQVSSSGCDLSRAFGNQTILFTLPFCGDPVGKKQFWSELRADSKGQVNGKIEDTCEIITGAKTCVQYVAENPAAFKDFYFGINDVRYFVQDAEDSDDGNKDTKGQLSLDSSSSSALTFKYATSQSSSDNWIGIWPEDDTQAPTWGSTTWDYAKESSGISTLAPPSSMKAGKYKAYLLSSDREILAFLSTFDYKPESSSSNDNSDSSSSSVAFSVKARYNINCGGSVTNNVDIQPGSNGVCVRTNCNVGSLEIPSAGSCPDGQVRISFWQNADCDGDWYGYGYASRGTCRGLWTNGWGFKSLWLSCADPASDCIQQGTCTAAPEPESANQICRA

OC[C@H]1O[C@@H](O[C@@H]2[C@@H](O)[C@H](O[C@@H]3[C@@H](O)[C@H](O[C@H]4[C@H](O)[C@@H](CO)OC(O)[C@@H]4O)O[C@H](CO)[C@H]3O)O[C@H](CO)[C@H]2O)[C@H](O)[C@@H](O)[C@@H]1O (stereo partly shown) [laminaritetraose]
glucose release, glucose oxidase method: Measurement of glucanase activity indicated release of reducing sugar from laminaritetraose (β-1,3-glucose)
